Legend:
[1] = system: adenosine deaminase; assay: Adenosine deaminase assay; assay type: in vitro ADME; conditions: 7 minutes with 0.002 units of enzyme; 50 μM, pH 7.4, 25° C.
Method: To determine the propensity for deamination of the nucleosides and monophosphate prodrugs by adenosine deaminase, nucleoside analogues can be incubated with the commercially available purified enzyme, and the reaction can be followed spectrophotometrically. Typical reaction conditions involve preparing a solution containing 50 μM nucleoside analog in 0.5 mL 50 mM potassium phosphate (pH 7.4) at 25° C. The typical reaction time is 7 minutes with 0.002 units of enzyme, and 120 minutes with 0.2 units of enzyme. (The unit definition of adenosine deaminase is one unit will deaminate 1.0 μmol of adenosine to inosine per minute at pH 7.5 at 25° C.) Deoxyadenosine is typically used as a positive control. Deoxyadenosine is 59% deaminated under the given conditions in 7 minutes with 0.002 units of enzyme. Deoxyguanosine is typically used as a negative control. Optical density can be measured at 265 nm or 285 nm. The difference in optical density between the beginning and the end of the experiment is divided by the extinction coefficient, and then multiplied by the volume of the reaction to determine the number of mols of substrate transformed into product. Mols of product would be divided by mols of substrate equivalent to a 100% complete reaction then multiplied by 100 to obtain percent deamination. The limit of detection is typically 0.001 optical density units.

[2] = system: HepG2 cells; conditions: 10 μM; cited from earlier work
[3] = system: HepG2 Hepatoma cells; assay: Lactic acid production in HepG2 cells; assay type: cell-based; conditions: 10 μM, 14 day assay
Method: The effect on the growth of HepG2 cells was determined by incubating cells in the presence of 0 μM, 0.1 μM, 1 μM, 10 μM and 100 μM drug. Cells (5×10^4 per well) were plated into 12-well cell culture clusters in minimum essential medium with nonessential amino acids supplemented with 10% fetal bovine serum, 1% sodium pyruvate, and 1% penicillin/streptomycin and incubated for 4 days at 37° C. At the end of the incubation period the cell number was determined using a hemocytometer. Also taught by Pan-Zhou X-R, Cui L, Zhou X-J, Sommadossi J-P, Darley-Usmer V M. “Differential effects of antiretroviral nucleoside analogs on mitochondrial function in HepG2 cells” Antimicrob. Agents Chemother. 2000; 44: 496-503. […] At day 4 the number of cells in each well was determined and the culture medium collected. The culture medium was filtered, and the lactic acid content in the medium determined using a colorimetric lactic acid assay (Sigma-Aldrich). Since lactic acid product can be considered a marker for impaired mitochondrial function, elevated levels of lactic acid production detected in cells grown in the presence of 2,6-diamino 2′-C-Me purine nucleoside monophosphate prodrug analogs would indicate a drug-induced cytotoxic effect.
The effect of compounds 8b-up, 12, and 8a on nuclear or mitochondrial DNA, or lactic acid production, in HepG2 Hepatoma cells was analyzed over a 14 day period. […]

[4] = system: MtDNA, HepG2 Hepatoma cells; assay: Mitochondrial toxicity in HepG2 cells: mitochondrial DNA content; assay type: cell-based; conditions: HepG2 Hepatoma cells, 14 day assay; for % Inhibition MtDNA: 10 μM
Source text: A real-time PCR assay to accurately quantify mitochondrial DNA content has been developed (see Stuyver L J, Lostia S, Adams M, Mathew J S, Pai B S, Grier J, Tharnish P M, Choi Y, Chong Y, Choo H, Chu C K, Otto M J, Schinazi R F. Antiviral activities and cellular toxicities of modified 2′,3′-dideoxy-2′,3′-didehydrocytidine analogs. Antimicrob. Agents Chemother. 2002; 46: 3854-60). This assay was used in all studies described in this application that determine the effect of nucleoside analogs on mitochondrial DNA content. In this assay, low-passage-number HepG2 cells were seeded at 5,000 cells/well in collagen-coated 96-well plates. Nucleoside monophosphate analogs were added to the medium to obtain final concentrations of 0 μM, 0.1 μM, 10 μM and 100 μM. On culture day 7, cellular nucleic acids were prepared by using commercially available columns (RNeasy 96 kit; Qiagen). […] The mitochondrial cytochrome c oxidase subunit II (COXII) gene and the β-actin or rRNA gene were amplified from 5 μl of the eluted nucleic acids using a multiplex Q-PCR protocol with suitable primers and probes for both target and reference amplifications. For COXII the following sense, probe and antisense primers are used, respectively: 5′-[…]-3′,5′-tetrachloro-6-carboxyfluorescein-[…]-TAMRA-3′ and 5′-[…]-3′. For exon 3 of the β-actin gene (GenBank accession number E01094) the sense, probe, and antisense primers are 5′-[…]-3′,5′-6-[…]-3′ and 5′-[…]-3′, respectively. The primers and probes for the rRNA gene are commercially available from Applied Biosystems. Since equal amplification efficiencies were obtained for all genes, the comparative CT method was used to investigate potential inhibition of mitochondrial DNA synthesis. The comparative CT method uses arithmetic formulas in which the amount of target (COXII gene) is normalized to the amount of an endogenous reference (the β-actin or rRNA gene) and is relative to a calibrator (a control with no drug at day 7). The arithmetic formula for this approach is given by 2-ΔΔCT, where ΔΔCT is (CT for average target test sample−CT for target control)−(CT for average reference test−CT for reference control) (see Johnson M R, K Wang, J B Smith, M J Heslin, R B Diasio. Quantitation of dihydropyrimidine dehydrogenase expression by real-time reverse transcription polymerase chain reaction. Anal. Biochem. 2000; 278:175-184). A decrease in mitochondrial DNA content in cells grown in the presence of drug would indicate mitochondrial toxicity.
(§1) The effect of compounds 8b-up, 12, and 8a on nuclear or mitochondrial DNA, or lactic acid production, in HepG2 Hepatoma cells was analyzed over a 14 day period. The procedure outlined in section (i) above was used for this analysis.

[5] = Cytotoxicity assay, PBM cells; assay type: cell-based; conditions: human
Method: (§2) The toxicity of the compounds was assessed in Vero, human PBM, CEM (human lymphoblastoid), and HepG2 cells, as described previously (see Schinazi R. F., Sommadossi J.-P., Saalmann V., Cannon D. L., Xie M.-Y., Hart G. C., Smith G. A. & Hahn E. F. Antimicrob. Agents Chemother. 1990, 34, 1061-67). Cycloheximide was included as positive cytotoxic control, and untreated cells exposed to solvent would be included as negative controls. The cytotoxicity IC50 was obtained from the concentration-response curve using the median effective method described previously (see Chou T.-C. & Talalay P. Adv. Enzyme Regul. 1984, 22, 27-55; Belen'kii M. S. & Schinazi R. F. Antiviral Res. 1994, 25, 1-11).

[6] = Cytotoxicity assay, Vero cells; assay type: cell-based; conditions: African green monkey
Method: as §2

[7] = Cytotoxicity assay, CEM cells; assay type: cell-based; conditions: human
Method: as §2

[8] = system: HCV 1b C316Y replicon; assay: HCV resistant replicon 1b C316Y; assay type: cell-based
[9] = system: HCV 1a replicon; assay: HCV replicon, genotype 1a; assay type: cell-based
[10] = system: HCV 1b replicon; assay: HCV replicon, genotype 1b; assay type: cell-based
[11] = system: HCV 1b M414I replicon; assay: HCV resistant replicon 1b M414I; assay type: cell-based
[12] = system: HCV 2b chimera replicon; assay: HCV replicon, 2b chimera; assay type: cell-based
[13] = system: HCV 4a chimera replicon; assay: HCV replicon, 4a chimera; assay type: cell-based
[14] = system: HCV Replicon RNA in Huh 7 Clone B cells; assay: HCV replicon assay; assay type: cell-based; conditions: HCV replicon assay
Method: Huh 7 Clone B cells containing HCV Replicon RNA were seeded in a 96-well plate at 5000 cells/well, and the compounds tested at 10 μM in triplicate immediately after seeding. Following five days incubation (37° C., 5% CO2), total cellular RNA was isolated using the versaGene RNA purification kit from Gentra. Replicon RNA and an internal control (TaqMan rRNA control reagents, Applied Biosystems) were amplified in a single step multiplex Real Time RT-PCR Assay. The antiviral effectiveness of the compounds was calculated by subtracting the threshold RT-PCR cycle of the test compound from the threshold RT-PCR cycle of the no-drug control (ΔCt HCV). A ΔCt of 3.3 equals a 1-log reduction (equal to 90% less starting material) in Replicon RNA levels. The cytotoxicity of the compounds was also calculated using the ΔCt rRNA values. (2′-C-Me-C) was used as the control. To determine EC90 and IC50 values^2, ΔCt: values were first converted into a fraction of the starting material,^3 and then were used to calculate the % inhibition. The data on three compounds (Compound 12, Compound 8a, and compound 8b-up) is shown below in Table 3.

[15] = system: HCV 2a replicon; assay: HCV replicon, genotype 2a; assay type: cell-based
[16] = system: HCV 3a chimera replicon; assay: HCV replicon, 3a chimera; assay type: cell-based
[17] = system: HCV 5a chimera replicon; assay: HCV replicon, 5a chimera; assay type: cell-based
[18] = system: HCV 1b S282T replicon; assay: HCV resistant replicon 1b S282T; assay type: cell-based
[19] = system: nuclear DNA, HepG2 Hepatoma cells; assay: Mitochondrial toxicity in HepG2 cells: nuclear DNA content; assay type: cell-based; conditions: 10 μM; HepG2 Hepatoma cells, 14 day assay
Method: This assay was used in all studies described in this application that determine the effect of nucleoside analogs on mitochondrial DNA content. In this assay, low-passage-number HepG2 cells were seeded at 5,000 cells/well in collagen-coated 96-well plates. […] On culture day 7, cellular nucleic acids were prepared by using commercially available columns (RNeasy 96 kit; Qiagen). […] The mitochondrial cytochrome c oxidase subunit II (COXII) gene and the β-actin or rRNA gene were amplified from 5 μl of the eluted nucleic acids using a multiplex Q-PCR protocol with suitable primers and probes for both target and reference amplifications. […] For exon 3 of the β-actin gene (GenBank accession number E01094) the sense, probe, and antisense primers are 5′-[…]-3′,5′-6-[…]-3′ and 5′-[…]-3′, respectively. The primers and probes for the rRNA gene are commercially available from Applied Biosystems. […] The comparative CT method uses arithmetic formulas in which the amount of target (COXII gene) is normalized to the amount of an endogenous reference (the β-actin or rRNA gene) and is relative to a calibrator (a control with no drug at day 7). The arithmetic formula for this approach is given by 2-ΔΔCT, where ΔΔCT is (CT for average target test sample−CT for target control)−(CT for average reference test−CT for reference control) (see Johnson M R, K Wang, J B Smith, M J Heslin, R B Diasio. Quantitation of dihydropyrimidine dehydrogenase expression by real-time reverse transcription polymerase chain reaction. Anal. Biochem. 2000; 278:175-184). A decrease in mitochondrial DNA content in cells grown in the presence of drug would indicate mitochondrial toxicity.
as §1

Nc1ncnc2c1ncn2[C@H]1C[C@H](O)[C@@H](CO)O1 [Deoxyadenosine]
percent deamination [1]: 59%

O=c1[nH]c(=O)n([C@@H]2O[C@H](CO)[C@@H](O)[C@@H]2F)cc1I [fialuridine, 1,2′-deoxy-2′-fluoro-1-D-arabinofuranosly-5-iodo-uracil]
morphological changes in mitochondria (electron micrographs) [2]: presence of enlarged mitochondria with morphological changes consistent with mitochondrial dysfunction

Nc1ccn([C@@H]2CS[C@H](CO)O2)c(=O)n1 [Compound 3TC, reference compound]
Lactic acid levels (% of control) ± SD [3]: 91 ± 2.5 % of control | % Inhibition MtDNA [4]: <1/<1%

CC1(O)C(O)[C@@H](CO)O[C@H]1n1cnc2c(N)nc(N)nc21 (stereo partly shown) [drawing 52]
CC50 ([5]; PBM cells): > 100 µM | CC50 ([6]; Vero cells): > 100 µM | CC50 ([7]; CEM lymphoblastoid cells): > 100 µM

CCOC(=O)CCc1ccccc1OP(=O)(NC(C)C(=O)OCC)OC[C@H]1O[C@@H](n2cnc3c(N)nc(N)nc32)C(C)(O)C1O (single isomer, unassigned) [Compound 8b-up]
effect on nuclear or mitochondrial DNA or lactic acid production ([4]; up to 50 μM, summary also covers nuclear DNA and lactic acid): no significant effect | Fold increase versus 1b WT at the EC90 [8]: ++ (++ = 1.1 to 2) | Fold increase versus 1b WT at the EC90 [9]: ++ (++ = 1.1 to 2) | Fold increase versus 1b WT at the EC90 [10]: + (+ = 0.1 to 1) | Fold increase versus 1b WT at the EC90 [11]: +++ (+++ = 2.1 to 3) | Fold increase versus 1b WT at the EC90 [12]: ++ (++ = 1.1 to 2) | Fold increase versus 1b WT at the EC90 [13]: +++ (+++ = 2.1 to 3) | times more potent than 8b-down [14]: approximately 10 | Fold increase versus 1b WT at the EC90 [15]: ++ (++ = 1.1 to 2) | Fold increase versus 1b WT at the EC90 [16]: + (+ = 0.1 to 1) | Fold increase versus 1b WT at the EC90 [17]: ++ (++ = 1.1 to 2) | Fold increase versus 1b WT at the EC90 [18]: + (+ = 0.1 to 1)

CCOC(=O)[C@H](C)NP(=O)(OC[C@H]1O[C@@H](n2cnc3c(N)nc(N)nc32)C(C)(O)C1O)Oc1ccccc1 (stereo partly shown) [drawing 53]
CC50 ([5]; PBM): > 100 µM | CC50 ([6]; Vero): > 100 µM | CC50 ([7]; CEM): > 100 µM

CCOC(=O)CCc1ccccc1OP(=O)(N[C@H](C)C(=O)OCC)OC[C@H]1O[C@@H](n2cnc3c(N)nc(N)nc32)C(C)(O)C1O (stereo partly shown) [drawing 54]
CC50 ([5]; PBM): > 100 µM | CC50 ([6]; Vero): > 100 µM | CC50 ([7]; CEM): > 100 µM

Nc1ccn([C@H]2CC[C@@H](CO)O2)c(=O)n1 [ddC, reference compound]
Lactic acid levels (% of control) ± SD [3]: 220 ± 11 % of control | % Inhibition MtDNA [4]: 100% | % Inhibition nuclear DNA [19]: 72%

From patent publication US20140212382A1, “PURINE MONOPHOSPHATE PRODRUGS FOR TREATMENT OF VIRAL INFECTIONS” (EMORY UNIVERSITY, priority 2011, published 2014)
